US20260297109A1, “COMPOUNDS AS SUMO ACTIVATING ENZYME INHIBITORS” (WIGEN BIOMEDICINE TECHNOLOGY (SHANGHAI) CO., LTD., priority 2022, published 2026)

What follows are compounds tested against T1, SAE (Homo sapiens, UniProt Q9UBT2) (assay: SUMO IF: in vitro inhibitory activity assay against SAE in HCT116 cells (SUMO-2/3 immunofluorescence)). Details: class symbols, 6 h at 37° C.
T1 construct: endogenous in cells; host or cells: HCT116
T1 sequence (Q9UBT2 1-640): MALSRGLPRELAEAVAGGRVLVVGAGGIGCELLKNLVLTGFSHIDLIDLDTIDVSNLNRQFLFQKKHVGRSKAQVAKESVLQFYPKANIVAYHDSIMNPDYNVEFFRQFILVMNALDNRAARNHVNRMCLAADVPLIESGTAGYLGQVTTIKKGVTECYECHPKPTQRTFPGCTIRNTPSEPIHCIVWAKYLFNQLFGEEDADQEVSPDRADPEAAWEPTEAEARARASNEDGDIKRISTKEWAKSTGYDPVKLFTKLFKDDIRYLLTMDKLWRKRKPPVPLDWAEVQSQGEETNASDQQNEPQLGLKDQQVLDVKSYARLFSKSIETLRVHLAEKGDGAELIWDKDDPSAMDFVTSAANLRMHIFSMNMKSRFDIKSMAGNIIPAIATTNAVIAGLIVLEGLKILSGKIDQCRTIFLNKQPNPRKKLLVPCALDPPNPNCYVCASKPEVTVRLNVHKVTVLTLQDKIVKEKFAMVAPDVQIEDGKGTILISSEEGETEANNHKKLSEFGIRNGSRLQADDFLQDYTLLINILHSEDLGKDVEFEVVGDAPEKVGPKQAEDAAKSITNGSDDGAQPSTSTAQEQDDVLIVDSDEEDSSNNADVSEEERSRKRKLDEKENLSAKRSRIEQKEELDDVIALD
T1 sequence (Q9UBE0 1-346): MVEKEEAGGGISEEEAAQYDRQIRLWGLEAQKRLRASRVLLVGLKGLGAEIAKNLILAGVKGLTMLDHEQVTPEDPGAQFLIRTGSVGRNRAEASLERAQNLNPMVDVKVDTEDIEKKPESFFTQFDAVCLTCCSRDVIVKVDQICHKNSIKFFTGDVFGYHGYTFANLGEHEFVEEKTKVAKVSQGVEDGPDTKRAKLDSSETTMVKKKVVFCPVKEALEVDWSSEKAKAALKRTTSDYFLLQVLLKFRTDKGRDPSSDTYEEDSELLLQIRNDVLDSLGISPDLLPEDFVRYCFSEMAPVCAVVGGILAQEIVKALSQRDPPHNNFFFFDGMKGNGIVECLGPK
Type: cell-based
Summary of the method: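 HCT116 cells were treated with compound for 6 h at 37 °C, then PFA-fixed, Triton-permeabilised and BSA-blocked. They were stained overnight at 4 °C with anti-SUMO-2/3 (18H8) rabbit mAb (1:400), then with FITC anti-rabbit IgG (1:300). Fluorescence versus DMSO gave inhibition rate and IC50.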

Structure (SMILES)	IC50 [nM]
NS(=O)(=O)OC[C@H]1[C@H](F)[C@@H](Nc2ncncc2C(=O)c2nc3c(s2)COC[C@@]32NCCc3ccc(Cl)cc32)C[C@@H]1O [Compound 589]	> 200
NS(=O)(=O)OC[C@H]1[C@H](F)[C@@H](Nc2ncncc2C(=O)c2cc3c(s2)CCCC32OCCc3ccccc32)C[C@@H]1O (stereo partly drawn) [Compound 708]	> 200
NS(=O)(=O)OC[C@H]1[C@H](F)[C@@H](Nc2ncncc2C(=O)c2cc3c(s2)CCCC32NCCc3ccc(C(F)(F)F)cc32)C[C@@H]1O (stereo partly drawn) [Compound 109]	50 to 200
NS(=O)(=O)OC[C@H]1[C@H](F)[C@@H](Nc2ncncc2C(=O)c2cc3c(s2)CCC[C@@]32NC(=O)Cc3ccc(Cl)cc32)C[C@@H]1O [Compound 628]	> 200
CC1=CC2(NCCc3ccc(Cl)cc32)c2cc(C(=O)c3cncnc3N[C@H]3C[C@H](O)[C@@H](COS(N)(=O)=O)[C@@H]3F)sc21 (stereo partly drawn) [Compound 324]	50 to 200
NS(=O)(=O)OC[C@H]1[C@H](F)[C@@H](Nc2ncncc2C(=O)c2cc3c(s2)CCC[C@]32NCCc3ccc(C4CC4)cc32)C[C@@H]1O [Compound 667]	50 to 200
NS(=O)(=O)OC[C@H]1[C@H](F)[C@@H](Nc2ncncc2C(=O)c2cc3c(s2)C=CC32NCCc3ccc(Cl)cc32)C[C@@H]1O (stereo partly drawn) [Compound 162]	≤ 50
Cc1sc(C(=O)c2cncnc2N[C@H]2C[C@H](O)[C@@H](COS(N)(=O)=O)[C@@H]2F)cc1C1NCCc2ccc(C(F)(F)F)cc21 (stereo partly drawn) [Compound 244]	50 to 200
NS(=O)(=O)CC[C@H]1[C@H](F)[C@@H](Nc2ncncc2C(=O)c2cc3c(s2)CCCC32NCCc3ccc(Cl)cc32)C[C@@H]1O (stereo partly drawn) [Compound 636]	> 200
NS(=O)(=O)OC[C@H]1[C@H](F)[C@@H](Nc2ncncc2C(=O)c2nc3c(s2)CCC[C@@]32NCCc3ccc(Cl)cc32)C[C@@H]1O [Compound 586]	> 200
CC1(C)CNC2(C=Cc3sc(C(=O)c4cncnc4N[C@H]4C[C@H](O)[C@@H](COS(N)(=O)=O)[C@@H]4F)cc32)c2cc(Cl)ccc21 (stereo partly drawn) [Compound 1059]	50 to 200
NS(=O)(=O)OC[C@H]1[C@H](F)[C@@H](Nc2ncncc2C(=O)c2cc3c(s2)CCC[C@@]32NCCc3ccc(Cl)nc32)C[C@@H]1O [Compound 601]	> 200
Cc1sc(C(=O)c2cncnc2N[C@H]2C[C@H](O)[C@@H](COS(N)(=O)=O)[C@@H]2F)cc1C1OCc2ccc(Cl)cc21 (stereo partly drawn) [Compound 256]	> 200
NS(=O)(=O)OC[C@H]1[C@H](F)[C@@H](Nc2ncncc2C(=O)c2cc3c(s2)CSC[C@]32NCCc3ccc(Cl)nc32)C[C@@H]1O [Compound 611]	≤ 50
CC1(C)Cc2ccc(Cl)cc2[C@]2(CCCc3sc(C(=O)c4cncnc4N[C@H]4C[C@H](O)[C@@H](COS(N)(=O)=O)[C@@H]4F)cc32)N1 [Compound 1030]	> 200
N#Cc1ccc2c(c1)[C@]1(CCc3sc(C(=O)c4cncnc4N[C@H]4C[C@H](O)[C@@H](COS(N)(=O)=O)[C@@H]4F)cc31)OCC2 [Compound 751]	> 200
CCN1Cc2sc(C(=O)c3cncnc3N[C@H]3C[C@H](O)[C@@H](COS(N)(=O)=O)[C@@H]3F)cc2[C@@]2(C1)OCCc1ccc(Cl)cc12 [Compound 730]	> 200
NS(=O)(=O)OC[C@H]1[C@H](F)[C@@H](Nc2ncncc2C(=O)c2cc3c(s2)CCC[C@@]32NCCc3ccccc32)C[C@@H]1O [Compound 86]	> 200

Structure (SMILES)	IC50 [nM]
CN1Cc2sc(C(=O)c3cncnc3N[C@H]3C[C@H](O)[C@@H](COS(N)(=O)=O)[C@@H]3F)cc2[C@@]2(C1)OCCc1ccc(Cl)cc12 [Compound 724]	> 200
NS(=O)(=O)OC[C@H]1[C@H](F)[C@@H](Nc2ncncc2C(=O)c2cc3c(s2)CCC32OCCc3ccc(Cl)cc32)C[C@@H]1O (stereo partly drawn) [Compound 168]	≤ 50
NS(=O)(=O)CC[C@H]1[C@H](F)[C@@H](Nc2ncncc2C(=O)c2cc3c(s2)C=C[C@]32NCCc3ccc(Cl)cc32)C[C@@H]1O [Compound 640]	50 to 200
N#Cc1ccc2c(c1)C1(CCCc3sc(C(=O)c4cncnc4N[C@H]4C[C@H](O)[C@@H](COS(N)(=O)=O)[C@@H]4F)cc31)NCC2 (stereo partly drawn) [Compound 94]	50 to 200
NS(=O)(=O)OC[C@H]1[C@H](F)[C@@H](Nc2ncncc2C(=O)c2cc3c(s2)C(=O)C[C@]32NCCc3ccc(Cl)cc32)C[C@@H]1O [Compound 632]	50 to 200
COc1cc2c(cc1Cl)[C@@]1(CCc3sc(C(=O)c4cncnc4N[C@H]4C[C@H](O)[C@@H](COS(N)(=O)=O)[C@@H]4F)cc31)NCC2 [Compound 696]	50 to 200
Cc1sc(C(=O)c2cncnc2N[C@H]2C[C@H](O)[C@@H](COS(N)(=O)=O)[C@@H]2F)cc1C1NCCc2cc(F)c(Cl)c(F)c21 (stereo partly drawn) [Compound 251]	50 to 200
CC1(C)CNC2(CCCc3sc(C(=O)c4cncnc4N[C@H]4C[C@H](O)[C@@H](COS(N)(=O)=O)[C@@H]4F)cc32)c2cc(Cl)ccc21 (stereo partly drawn) [Compound 1026]	50 to 200
NS(=O)(=O)OC[C@H]1[C@H](F)[C@@H](Nc2ncncc2C(=O)c2cc3c(s2)CCC[C@]32NCCc3cc(F)c(Cl)c(F)c32)C[C@@H]1O [Compound 676]	≤ 50
CC1CN[C@@]2(CCCc3sc(C(=O)c4cncnc4N[C@H]4C[C@H](O)[C@@H](COS(N)(=O)=O)[C@@H]4F)cc32)c2cc(Cl)ccc21 (stereo partly drawn) [Compound 1021]	> 200
NS(=O)(=O)OC[C@H]1[C@H](F)[C@@H](Nc2ncncc2C(=O)c2cc3c(s2)COC[C@]32NCCc3cc(F)c(Cl)cc32)C[C@@H]1O [Compound 572]	50 to 200
CCN1Cc2sc(C(=O)c3cncnc3N[C@H]3C[C@H](O)[C@@H](COS(N)(=O)=O)[C@@H]3F)cc2C2(C1)OCCc1ccc(Cl)cc12 (stereo partly drawn) [Compound 729]	≤ 50
NS(=O)(=O)OC[C@H]1[C@H](F)[C@@H](Nc2ncncc2C(=O)c2cc3c(s2)OC[C@]32NCCc3ccc(F)cc32)C[C@@H]1O [Compound 144]	50 to 200
NS(=O)(=O)OC[C@H]1[C@H](F)[C@@H](Nc2ncncc2C(=O)c2cc3c(s2)CCCC32NCCc3cc(F)c(Cl)cc32)C[C@@H]1O (stereo partly drawn) [Compound 111]	≤ 50
NS(=O)(=O)OC[C@H]1[C@H](F)[C@@H](Nc2ncncc2C(=O)c2cc3c(s2)CCC[C@]32NCC3(CC3)c3ccc(Cl)cc32)C[C@@H]1O [Compound 617]	≤ 50
CC1(C)CN[C@@]2(C=Cc3sc(C(=O)c4cncnc4N[C@H]4C[C@H](O)[C@@H](COS(N)(=O)=O)[C@@H]4F)cc32)c2cc(Cl)ccc21 [Compound 1060]	> 200
N#Cc1ccc2c(c1)C1(C=Cc3sc(C(=O)c4cncnc4N[C@H]4C[C@H](O)[C@@H](COS(N)(=O)=O)[C@@H]4F)cc31)OCC2 (stereo partly drawn) [Compound 762]	50 to 200

Same assay, conditions: numeric values, 6 h at 37° C.

Structure (SMILES)	IC50 [nM]
NS(=O)(=O)OC[C@H]1[C@H](F)[C@@H](Nc2ncncc2C(=O)c2cc3c(s2)CC[C@@]32NCCc3ccc(Cl)cc32)C[C@@H]1O [Compound 131]	> 1000
CN1Cc2sc(C(=O)c3cncnc3N[C@H]3C[C@H](O)[C@@H](COS(N)(=O)=O)[C@@H]3F)cc2[C@@]2(C1)NCCc1ccc(Cl)cc12 [Compound 577]	> 1000
NS(=O)(=O)OC[C@H]1[C@H](F)[C@@H](Nc2ncncc2C(=O)c2cc3c(s2)COC[C@@]32NCCc3ccc(Cl)cc32)C[C@@H]1O [Compound 104]	> 1000
CCN1Cc2sc(C(=O)c3cncnc3N[C@H]3C[C@H](O)[C@@H](COS(N)(=O)=O)[C@@H]3F)cc2[C@]2(C1)NCCc1ccc(Cl)cc12 [Compound 647]	19.9
